Reference: US20230265151A1, “GIP/GLP1 CO-AGONIST COMPOUNDS” (priority 2020, published 2023)
Like-named read-outs stand apart in the source and are kept apart here. *1 amine or outer side, *2 acyl side, *3 side chain or, on linkers, in order; H or OH if unused. Where a SMILES comes first, the peptide text is derived from it. Side-chain parts run from the residue outwards. [ ]: non-standard residue; d: D form. The star is where a group is joined. αMePhe(2-F) = C[C@](N)(Cc1ccccc1F)C(=O)O; γGlu = O=C(O)[C@H](CCC(=O)[*:2])N[*:1]; αMeY = C[C@](N)(Cc1ccc(O)cc1)C(=O)O; αMeF = C[C@](N)(Cc1ccccc1)C(=O)O; 4Pal = N[C@@H](Cc1ccncc1)C(=O)O; αMeL = CC(C)C[C@](C)(N)C(=O)O; Lauroyl = CCCCCCCCCCCC(=O)*; Orn = NCCC[C@H](N)C(=O)O; AEEA = NCCOCCOCC(=O)O; Aib = CC(C)(N)C(=O)O

Assays:
Assay type in all cases: cell-based
hGCGR = target: T1, hGCGR (Homo sapiens, UniProt P47871); test: Functional cAMP formation (HTRF) in HEK-293 clonal cells expressing hGCGR, 0.1% bovine casein, without or with 1.0% human serum albumin; settings: cAMP, 37° C.
T1 construct: expressed in transfected cells
T1 sequence (P47871 26-477): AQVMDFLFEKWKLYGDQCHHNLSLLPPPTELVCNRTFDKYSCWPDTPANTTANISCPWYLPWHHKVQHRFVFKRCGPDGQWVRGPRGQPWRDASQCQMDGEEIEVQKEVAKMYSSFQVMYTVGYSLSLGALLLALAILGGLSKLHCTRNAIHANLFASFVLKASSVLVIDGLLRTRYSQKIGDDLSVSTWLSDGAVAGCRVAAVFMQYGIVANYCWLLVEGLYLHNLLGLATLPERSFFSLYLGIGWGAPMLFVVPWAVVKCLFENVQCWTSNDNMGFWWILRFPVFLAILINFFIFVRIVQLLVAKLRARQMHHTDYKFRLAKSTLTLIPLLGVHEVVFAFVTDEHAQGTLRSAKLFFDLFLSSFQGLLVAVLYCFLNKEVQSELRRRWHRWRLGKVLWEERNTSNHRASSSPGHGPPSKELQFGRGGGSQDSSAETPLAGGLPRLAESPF
Method in brief: (§1)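 Cells were stimulated with peptide for 30 min at 37° C, then lysed in buffer carrying cAMP-d2 and anti-cAMP Eu3+-cryptate for a competitive HTRF read after at least 60 min at room temperature. The 665/620 nm ratio was converted to nM cAMP against a standard curve.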

hGLP-1R = hGLP-1R (Homo sapiens, UniProt P43220); test: Functional cAMP formation (HTRF) in HEK-293 clonal cells expressing hGLP-1R, 0.1% bovine casein, without or with 1.0% human serum albumin; set-up: expressed in transfected cells; settings: for Emax: percent of maximal response to GLP-1(7-36)NH2; for EC50: cAMP
Chain of hGLP-1R (P43220 24-463): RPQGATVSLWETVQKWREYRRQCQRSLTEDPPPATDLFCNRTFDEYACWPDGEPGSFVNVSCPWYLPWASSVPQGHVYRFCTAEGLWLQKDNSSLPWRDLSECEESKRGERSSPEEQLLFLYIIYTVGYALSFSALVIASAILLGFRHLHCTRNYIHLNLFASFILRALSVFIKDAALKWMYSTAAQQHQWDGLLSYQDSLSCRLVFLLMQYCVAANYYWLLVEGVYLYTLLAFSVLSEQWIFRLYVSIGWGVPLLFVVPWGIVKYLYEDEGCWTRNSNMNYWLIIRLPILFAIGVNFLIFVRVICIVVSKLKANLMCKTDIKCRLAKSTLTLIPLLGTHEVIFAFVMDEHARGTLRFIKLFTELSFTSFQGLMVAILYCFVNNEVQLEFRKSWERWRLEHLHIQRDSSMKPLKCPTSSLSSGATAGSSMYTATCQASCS
Method in brief: as §1

hGIPR = target: T2, hGIPR (Homo sapiens, UniProt P48546); test: Functional cAMP formation (HTRF) in HEK-293 clonal cells expressing hGIPR, 0.1% bovine casein, without or with 1.0% human serum albumin; settings: for Emax: percent of maximal response to GIP(1-42)NH2; for EC50: cAMP, 0.1% bovine casein (no human serum albumin), geometric mean
T2 construct: expressed in transfected cells
T2 sequence (P48546 22-466): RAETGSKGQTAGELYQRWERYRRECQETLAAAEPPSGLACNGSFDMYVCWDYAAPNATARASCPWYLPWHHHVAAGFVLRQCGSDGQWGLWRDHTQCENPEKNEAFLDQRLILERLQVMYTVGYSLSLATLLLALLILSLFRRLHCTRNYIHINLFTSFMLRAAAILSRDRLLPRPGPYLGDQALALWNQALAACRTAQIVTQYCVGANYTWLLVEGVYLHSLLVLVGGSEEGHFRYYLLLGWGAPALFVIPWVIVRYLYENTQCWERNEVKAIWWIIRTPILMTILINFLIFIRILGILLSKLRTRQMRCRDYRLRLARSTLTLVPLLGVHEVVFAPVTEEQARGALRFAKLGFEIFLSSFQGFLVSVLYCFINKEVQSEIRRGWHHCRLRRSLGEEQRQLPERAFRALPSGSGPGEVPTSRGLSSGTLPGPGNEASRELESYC
Method in brief: as §1

[1] = 0.1% bovine casein (no human serum albumin), geometric mean, read-out: hGCGR EC50, nM (SEM, n)
[2] = 0.1% bovine casein and 1.0% human serum albumin, geometric mean (SEM, n), read-out: hGCGR EC50, nM (SEM, n)
[3] = HEK293, cAMP, 37° C., 0.1% bovine casein and 1.0% human serum albumin, read-out: hGLP-1R Emax, % ± SEM
[4] = 37° C., 0.1% bovine casein (no human serum albumin), geometric mean, read-out: hGLP-1R EC50, nM (SEM, n)
[5] = HEK293, cAMP, 37° C., 0.1% bovine casein and 1.0% human serum albumin, read-out: hGIPR Emax, % ± SEM
[6] = 37° C., read-out: hGIPR EC50, nM (SEM, n)
[7] = HEK293, cAMP, 37° C., 0.1% bovine casein, arithmetic mean, read-out: hGLP-1R Emax, % ± SEM
[8] = HEK293, cAMP, 37° C., 0.1% bovine casein, arithmetic mean, read-out: hGIPR Emax, % ± SEM

Row | SMILES | EC50 (hGCGR; [1]) [nM] | EC50 (hGCGR; [2]) [nM] | Emax (hGLP-1R; [3]) [%] | EC50 (hGLP-1R; [4]) [nM] | Emax (hGIPR; [5]) [%] | EC50 (hGIPR; [6]) [nM] | Emax (hGLP-1R; [7]) [%] | Emax (hGIPR; [8]) [%] | EC50 (hGLP-1R; 37° C., 0.1% bovine casein and 1.0% human serum albumin, geometric mean (SEM, n), read-out: hGLP-1R EC50, nM (SEM, n)) [nM] | EC50 (hGCGR; hGCGR EC50, nM (SEM, n), 0.1% bovine casein (no human serum albumin), geometric mean) [nM] | EC50 (hGCGR; hGCGR EC50, nM (SEM, n), 0.1% bovine casein and 1.0% human serum albumin, geometric mean (SEM, n)) [nM] | Emax (hGLP-1R; HEK293, read-out: hGLP-1R Emax, % ± SEM, cAMP, 37° C., 0.1% bovine casein, arithmetic mean) [%] | EC50 (hGLP-1R; hGLP-1R EC50, nM (SEM, n), 37° C., 0.1% bovine casein (no human serum albumin), geometric mean) [nM] | Emax (hGIPR; HEK293, read-out: hGIPR Emax, % ± SEM, cAMP, 37° C., 0.1% bovine casein and 1.0% human serum albumin) [%] | EC50 (hGIPR; hGIPR EC50, nM (SEM, n), 37° C.) [nM]
1 | CCCCCCCCCCCC(=O)N[C@@H](CCC(=O)NCCOCCOCC(=O)NCCOCCOCC(=O)NCCCC[C@H](NC(=O)[C@H](CO)NC(=O)[C@@H]1CCCN1C(=O)[C@@H]1CCCN1C(=O)[C@@H]1CCCN1C(=O)[C@H](C)NC(=O)CNC(=O)[C@H](CO)NC(=O)[C@H](CO)NC(=O)[C@@H]1CCCN1C(=O)CNC(=O)CNC(=O)[C@H](CCC(=O)O)NC(=O)[C@@H](NC(=O)[C@H](CC(C)C)NC(=O)[C@](C)(Cc1ccc(O)cc1)NC(=O)[C@@H](CCC(=O)O)NC(=O)[C@@H](NC(=O)[C@](C)(Cc1ccccc1)NC(=O)[C@H](CCC(=O)O)NC(=O)C(C)(C)NC(=O)[C@H](CCC(N)=O)NC(=O)[C@H](C)NC(=O)[C@H](CCCCNC(=O)COCCOCCNC(=O)COCCOCCNC(=O)CC[C@H](NC(=O)CCCCCCCCCCC)C(=O)O)NC(=O)[C@H](CCCN)NC(=O)[C@H](CC(=O)O)NC(=O)[C@H](CC(C)C)NC(=O)[C@](C)(CC(C)C)NC(=O)[C@@H](NC(=O)C(C)(C)NC(=O)[C@H](Cc1ccncc1)NC(=O)[C@H](CC(=O)O)NC(=O)[C@H](CO)NC(=O)[C@@H](NC(=O)[C@](C)(Cc1ccccc1F)NC(=O)[C@@H](NC(=O)CNC(=O)[C@H](CCC(=O)O)NC(=O)C(C)(C)NC(=O)[C@@H](N)Cc1ccc(O)cc1)[C@@H](C)O)[C@@H](C)O)[C@@H](C)CC)[C@@H](C)CC)[C@@H](C)CC)C(N)=O)C(=O)O [Example 431] (H-Y[Aib]EGT[αMePhe(2-F)]TSD[4Pal][Aib]I[αMeL]LD[Orn]K([AEEA-AEEA-γGlu-Lauroyl])AQ[Aib]E[αMeF]I[dE][αMeY]LIEGGPSSGAPPPSK([AEEA-AEEA-γGlu-Lauroyl])-NH2) | > 9950 | > 9950 | 91.6 | 0.134 | 98 | 0.0097 | – | – | – | – | – | – | – | – | –
2 | CCCCCCCCCCCC(=O)N[C@@H](CCC(=O)NCCOCCOCC(=O)NCCOCCOCC(=O)NCCOCCOCC(=O)NCCCC[C@H](NC(=O)[C@H](CCCN)NC(=O)[C@H](CC(=O)O)NC(=O)[C@H](CC(C)C)NC(=O)[C@](C)(CC(C)C)NC(=O)[C@@H](NC(=O)C(C)(C)NC(=O)[C@H](Cc1ccncc1)NC(=O)[C@H](CC(=O)O)NC(=O)[C@H](CO)NC(=O)[C@@H](NC(=O)[C@](C)(Cc1ccccc1F)NC(=O)[C@@H](NC(=O)CNC(=O)[C@H](CCC(=O)O)NC(=O)C(C)(C)NC(=O)[C@@H](N)Cc1ccc(O)cc1)[C@@H](C)O)[C@@H](C)O)[C@@H](C)CC)C(=O)N[C@@H](C)C(=O)N[C@@H](CCC(N)=O)C(=O)NC(C)(C)C(=O)N[C@@H](CCCCNC(=O)COCCOCCNC(=O)COCCOCCNC(=O)COCCOCCNC(=O)CC[C@H](NC(=O)CCCCCCCCCCC)C(=O)O)C(=O)N[C@@](C)(Cc1ccccc1)C(=O)N[C@H](C(=O)N[C@H](CCC(=O)O)C(=O)N[C@@](C)(Cc1ccc(O)cc1)C(=O)N[C@@H](CC(C)C)C(=O)N[C@H](C(=O)N[C@@H](CCC(=O)O)C(=O)NCC(=O)NCC(=O)N1CCC[C@H]1C(=O)N[C@@H](CO)C(=O)N[C@@H](CO)C(=O)NCC(=O)N[C@@H](C)C(=O)N1CCC[C@H]1C(=O)N1CCC[C@H]1C(=O)N1CCC[C@H]1C(=O)N[C@@H](CO)C(N)=O)[C@@H](C)CC)[C@@H](C)CC)C(=O)O [Example 437] (H-Y[Aib]EGT[αMePhe(2-F)]TSD[4Pal][Aib]I[αMeL]LD[Orn]K([AEEA-AEEA-AEEA-γGlu-Lauroyl])AQ[Aib]K([AEEA-AEEA-AEEA-γGlu-Lauroyl])[αMeF]I[dE][αMeY]LIEGGPSSGAPPPS-NH2) | > 9950 | > 9950 | 91.2 | 0.249 | 96.5 | 0.0146 | 89.2 | 94.8 | – | – | – | – | – | – | –
3 | CCCCCCCCCCCC(=O)N[C@@H](CCC(=O)NCCOCCOCC(=O)NCCOCCOCC(=O)NCCOCCOCC(=O)NCCCC[C@H](NC(=O)[C@H](CCCN)NC(=O)[C@H](CC(=O)O)NC(=O)[C@H](CC(C)C)NC(=O)[C@](C)(CC(C)C)NC(=O)[C@@H](NC(=O)C(C)(C)NC(=O)[C@H](Cc1ccncc1)NC(=O)[C@H](CC(=O)O)NC(=O)[C@H](CO)NC(=O)[C@@H](NC(=O)[C@](C)(Cc1ccccc1F)NC(=O)[C@@H](NC(=O)CNC(=O)[C@H](CCC(=O)O)NC(=O)C(C)(C)NC(=O)[C@@H](N)Cc1ccc(O)cc1)[C@@H](C)O)[C@@H](C)O)[C@@H](C)CC)C(=O)N[C@@H](C)C(=O)N[C@@H](CCC(N)=O)C(=O)NC(C)(C)C(=O)N[C@@H](CCC(=O)O)C(=O)N[C@@](C)(Cc1ccccc1)C(=O)N[C@H](C(=O)N[C@H](CCC(=O)O)C(=O)N[C@@](C)(Cc1ccc(O)cc1)C(=O)N[C@@H](CC(C)C)C(=O)N[C@H](C(=O)N[C@@H](CCCCNC(=O)COCCOCCNC(=O)COCCOCCNC(=O)COCCOCCNC(=O)CC[C@H](NC(=O)CCCCCCCCCCC)C(=O)O)C(=O)NCC(=O)NCC(=O)N1CCC[C@H]1C(=O)N[C@@H](CO)C(=O)N[C@@H](CO)C(=O)NCC(=O)N[C@@H](C)C(=O)N1CCC[C@H]1C(=O)N1CCC[C@H]1C(=O)N1CCC[C@H]1C(=O)N[C@@H](CO)C(N)=O)[C@@H](C)CC)[C@@H](C)CC)C(=O)O [Example 438] (H-Y[Aib]EGT[αMePhe(2-F)]TSD[4Pal][Aib]I[αMeL]LD[Orn]K([AEEA-AEEA-AEEA-γGlu-Lauroyl])AQ[Aib]E[αMeF]I[dE][αMeY]LIK([AEEA-AEEA-AEEA-γGlu-Lauroyl])GGPSSGAPPPS-NH2) | > 9950 | > 9950 | 88.7 | 0.471 | 90.8 | 0.0157 | 88.5 | 98.9 | 28 | – | – | – | – | – | –
4 | CC[C@H](C)[C@H](NC(=O)[C@H](CC(C)C)NC(=O)[C@](C)(Cc1ccc(O)cc1)NC(=O)[C@H](CCCCNC(=O)COCCOCCNC(=O)COCCOCCNC(=O)CC[C@H](NC(=O)CCCCCCCCCCOc1ccc(C(=O)O)cc1)C(=O)O)NC(=O)[C@@H](NC(=O)[C@H](Cc1ccccc1)NC(=O)[C@H](CCCN)NC(=O)C(C)(C)NC(=O)[C@H](CCC(N)=O)NC(=O)[C@H](C)NC(=O)[C@H](CCC(N)=O)NC(=O)[C@H](CCCN)NC(=O)[C@H](CC(=O)O)NC(=O)[C@H](CC(C)C)NC(=O)[C@](C)(CC(C)C)NC(=O)[C@@H](NC(=O)C(C)(C)NC(=O)[C@H](Cc1ccncc1)NC(=O)[C@H](CC(=O)O)NC(=O)[C@H](CO)NC(=O)[C@@H](NC(=O)[C@](C)(Cc1ccccc1F)NC(=O)[C@@H](NC(=O)CNC(=O)[C@H](CCC(=O)O)NC(=O)C(C)(C)NC(=O)[C@@H](N)Cc1ccc(O)cc1)[C@@H](C)O)[C@@H](C)O)[C@@H](C)CC)[C@@H](C)CC)C(=O)N[C@@H](CCCCNC(=O)COCCOCCNC(=O)COCCOCCNC(=O)CC[C@H](NC(=O)CCCCCCCCCCOc1ccc(C(=O)O)cc1)C(=O)O)C(=O)NCC(=O)NCC(=O)N1CCC[C@H]1C(=O)N[C@@H](CO)C(=O)N[C@@H](CO)C(=O)NCC(=O)N[C@@H](C)C(=O)N1CCC[C@H]1C(=O)N1CCC[C@H]1C(=O)N1CCC[C@H]1C(=O)N[C@@H](CO)C(N)=O [Example 442] | – | – | – | – | – | – | – | – | – | > 9950 | > 9950 | 113 | 0.285 | 92.1 | 0.0129
